Laboratory results published in ChEMBL document CHEMBL5143672, “New diarylpentanoids and chalcones as potential antimicrobial adjuvants” (2022).

Assays:
[1] = tested on: Salmonella typhimurium; test: Antibacterial activity against Salmonella enterica serovar typhimurium SL1344 (SE03) assessed as inhibition of bacterial growth by broth microdilution method; format: functional, Salmonella enterica subsp. enterica serovar Typhimurium
[2] = tested on: Candida albicans; test: Antifungal activity against Candidia albicans ATCC 10231 assessed as inhibition of fungal growth by broth microdilution method; format: functional
[3] = tested on: Enterococcus faecalis; test: Antimicrobial adjuvant activity against Enterococcus faecalis B3/101 assessed as potentiation of vancomycin-induced antibacterial activity by measuring fold reduction in vancomycin MIC at 64 ug/ml by broth microdilution method; format: functional; settings: dose 64 µg/ml
[4] = tested on: Escherichia coli; test: Antibacterial activity against Escherichia coli ATCC 25922 assessed as inhibition of bacterial growth by broth microdilution method; format: functional
[5] = Inhibition of Multidrug resistance efflux pump in Staphylococcus aureus 272123 assessed as relative fluorescence index using ethidium bromide as substrate at 50 uM by fluorescence based analysis
[6] = tested on: Pseudomonas aeruginosa; test: Antibacterial activity against Pseudomonas aeruginosa ATCC 27853 assessed as inhibition of bacterial growth by broth microdilution method; format: functional
[7] = tested on: Staphylococcus aureus; test: Antibacterial activity against methicillin and ofloxacin-resistant Staphylococcus aureus 272123 assessed as inhibition of bacterial growth by broth microdilution method; format: functional
[8] = tested on: Trichophyton rubrum; test: Antifungal activity against Trichophyton rubrum FF5 assessed as inhibition of fungal growth by broth microdilution method; format: functional
[9] = tested on: Aspergillus fumigatus; test: Antifungal activity against Aspergillus fumigatus ATCC 204305 assessed as inhibition of fungal growth by broth microdilution method; format: functional
[10] = tested on: Enterococcus faecalis; test: Antibacterial activity against Enterococcus faecalis ATCC 29212 assessed as inhibition of bacterial growth by broth microdilution method; format: functional
[11] = tested on: Staphylococcus aureus; test: Antibacterial activity against Staphylococcus aureus ATCC 25923 assessed as inhibition of bacterial growth by broth microdilution method; format: functional
[12] = tested on: Salmonella enterica subsp. enterica serovar Typhimurium; test: Inhibition of Multidrug resistance efflux pump in Salmonella enterica serovar typhimurium SL1344 (SE03) assessed as relative fluorescence index using ethidium bromide as substrate at 50 uM by fluorescence based analysis
[13] = tested on: Escherichia coli; test: Antimicrobial adjuvant activity against ESBL-producing Escherichia coli SA/2 assessed as potentiation of cefotaxime-induced antibacterial activity by measuring fold reduction in cefotaxime MIC at 64 ug/ml by broth microdilution method; format: functional; settings: dose 64 µg/ml
[14] = tested on: Serratia marcescens; test: Inhibition of quorum sensing system in Serratia marcescens AS-1 assessed as reduction in pigment production incubated for 24 to 48 hrs; settings: time 24-48 hrs
[15] = tested on: Staphylococcus aureus; test: Inhibition of biofilm formation in Staphylococcus aureus ATCC 25923 at 100 uM incubated for 48 hrs by crystal violet staining based analysis; format: functional
[16] = tested on: Staphylococcus aureus; test: Inhibition of biofilm formation in Staphylococcus aureus 272123 at 100 uM incubated for 48 hrs by crystal violet staining based analysis; format: functional
[17] = Inhibition of quorum sensing system in Chromobacterium violaceum CV026 assessed as reduction in pigment production co-cultured with Sphingomonas paucimobilis Ezf 10-17 for 24 to 48 hrs; settings: time 24-48 hrs
[18] = Inhibition of quorum sensing system in Chromobacterium violaceum wild type 85 assessed as reduction in pigment production incubated for 24 to 48 hrs; settings: time 24-48 hrs

| Compound | MIC [1] [µg/mL] | MIC [2] [µg/mL] | fold change (FC) [3] | MIC [4] [µg/mL] | RFU [5] | MIC [6] [µg/mL] | MIC [7] [µg/mL] | MIC [8] [µg/mL] | MIC [9] [µg/mL] | MIC [10] [µg/mL] | MIC [11] [µg/mL] | RFU [12] | fold change (FC) [13] | Activity [14] [mm] | inhibition at 100 µM [15] [%] | inhibition at 100 µM [16] [%] | Activity [17] [mm] | Activity [18] [mm] |
| --- | --- | --- | --- | --- | --- | --- | --- | --- | --- | --- | --- | --- | --- | --- | --- | --- | --- | --- |
| COc1cccc(/C=C2\COC/C(=C\c3cccc(OC)c3)C2=O)c1 | > 64 | > 128 | 4 | > 64 | 0.17 | > 64 | > 64 | > 128 | > 128 | > 64 | > 64 | 0.05 | – | – | – | – | – | – |
| COc1ccccc1/C=C1\CC/C(=C\c2ccccc2OC)C1=O | > 64 | > 128 | 2 | > 64 | -0.39 | > 64 | > 64 | > 128 | > 128 | > 64 | > 64 | 0.15 | – | – | – | – | – | – |
| COc1ccc(/C=C2\COC/C(=C\c3ccc(OC)cc3OC)C2=O)c(OC)c1 | > 64 | > 128 | – | > 64 | -0.19 | > 64 | > 64 | > 128 | > 128 | > 64 | > 64 | -0.15 | 8 | – | – | – | – | – |
| COc1ccccc1/C=C1\COC/C(=C\c2ccccc2OC)C1=O | > 64 | > 128 | – | > 64 | 0.21 | > 64 | > 64 | > 128 | > 128 | > 64 | > 64 | 0.16 | 2 | – | – | – | – | – |
| O=C1/C(=C/c2cccc(F)c2)COC/C1=C\c1cccc(F)c1 | > 64 | > 128 | 2 | > 64 | -0.16 | > 64 | > 64 | > 128 | > 128 | > 64 | > 64 | 0.04 | – | – | – | – | – | – |
| COc1ccccc1/C=C1\CSC/C(=C\c2ccccc2OC)C1=O | > 64 | > 128 | 4 | > 64 | 0.01 | > 64 | > 64 | > 128 | > 128 | > 64 | > 64 | 0.01 | – | – | – | – | – | – |
| COc1ccc(/C=C2\COC/C(=C\c3ccc(OC)c(OC)c3)C2=O)cc1OC | > 64 | > 128 | – | > 64 | 2.47 | > 64 | > 64 | > 128 | > 128 | > 64 | > 64 | -0.02 | 2 | 0 | 0 | 0 | 0 | 0 |
| Cc1ccc(/C=C2\COC/C(=C\c3ccc(C)cc3)C2=O)cc1 | > 64 | > 128 | 2 | > 64 | -0.24 | > 64 | > 64 | > 128 | > 128 | > 64 | > 64 | -0.21 | 2 | – | – | – | – | – |
| CC(CN1c2ccccc2Sc2ccccc21)N(C)C (centres undefined) | – | – | – | – | – | – | – | – | – | – | – | – | – | 18 | – | – | 41 | 40 |
| O=C1/C(=C/c2ccccc2F)COC/C1=C\c1ccccc1F | > 64 | > 128 | – | > 64 | -0.08 | > 64 | > 64 | > 128 | > 128 | > 64 | > 64 | -0.04 | 2 | – | – | – | – | – |
| COc1cc(OC)c(OC)cc1/C=C1\CSc2ccccc2C1=O | > 64 | > 128 | 2 | > 64 | 0.36 | > 64 | > 64 | > 128 | > 128 | > 64 | > 64 | -0.02 | – | 0 | 0 | 74.1 | 0 | 0 |
